Experimental data: article PMC6022226, “Novel coumarin-6-sulfonamides as apoptotic anti-proliferative agents: synthesis, in vitro biological evaluation, and QSAR studies” (Journal of Enzyme Inhibition and Medicinal Chemistry, 2018)
Read-outs that look alike come from different tables or passages of the source.

Tests used:
[1] = test system: HepG2 hepatocellular carcinoma; test: In vitro anti-proliferative activity, SRB assay, HepG2; type: cell-based, human
Method: (§1) HepG2 liver cancer, MCF-7 breast cancer and Caco-2 cancer cell lines were obtained from the National Cancer Institute (Cairo, Egypt). Caco-2 cells were grown in DMEM while HepG2 and MCF-7 were grown in RPMI-1640. Media were supplemented with 10% heat-inactivated FBS, 50 units/mL of penicillin and 50 µg/mL of streptomycin and maintained at 37 °C in a humidified atmosphere containing 5% CO2. The cells were maintained as a “monolayer culture” by serial subculturing. Cytotoxicity was determined using the sulforhodamine B (SRB) method as previously described by Skehan et al.[50] Exponentially growing cells were collected using 0.25% trypsin-EDTA and seeded in 96-well plates at 1000–2000 cells/well in supplemented DMEM medium. After 24 h, cells were incubated for 72 h with various concentrations of the tested compounds as well as doxorubicin as the reference compound. Following 72 h of treatment, the cells were fixed with 10% trichloroacetic acid for 1 h at 4 °C. Wells were stained for 10 min at room temperature with 0.4% SRB dissolved in 1% acetic acid. The plates were air dried for 24 h, and the dye was solubilized with Tris–HCl for 5 min on a shaker at 1600 rpm. The optical density (OD) of each well was measured spectrophotometrically at 564 nm with an ELISA microplate reader (ChroMate-4300, FL, USA). The IC50 values were calculated according to the equation for Boltzmann sigmoidal concentrationeresponse curve using the nonlinear regression models (GraphPad, Prism Version 5). The results reported are means of at least three separate experiments. Significant differences were analyzed by one-way ANOVA wherein the differences were considered to be significant at p < .05.
(§2) All the newly synthesized target coumarin sulfonamides were evaluated for their in vitro anti-proliferative activity against three human tumor cancer cell lines, HepG2 hepatocellular carcinoma, MCF-7 breast cancer, and Caco-2 colon cancer, using SRB colorimetric assay as described by Skehan et al.^50 Doxorubicin was involved in the experiments as a reference cytotoxic compound.

MCF-7 breast cancer = test: In vitro anti-proliferative activity, SRB assay, MCF-7; type: cell-based, human; conditions: mean ± SE of three experiments
Method: as §1, §2

Caco-2 colon cancer = test: In vitro anti-proliferative activity, SRB assay, Caco-2; type: cell-based, human
Method: as §1, §2

[2] = Homo sapiens, HepG2, 72 h, 72 h incubation, SRB, mean ± SE of three experiments, read-out: IC50 HepG2
[3] = Homo sapiens, HepG2, training set, Table 4, -log IC50 (IC50 in µM), read-out: HepG2 Experimental activity (pIC50) (converted)
[4] = Homo sapiens, MCF7, 72 h incubation
[5] = Homo sapiens, Caco-2, 72 h incubation, SRB, mean ± SE of three experiments, read-out: IC50 Caco-2
[6] = Homo sapiens, Caco-2, training set, Table 4, -log IC50 (IC50 in µM), read-out: Caco-2 Experimental activity (pIC50) (converted)
[7] = Homo sapiens, HepG2, external validation test compounds, Table 5, -log IC50 (IC50 in µM), read-out: HepG2 Experimental activity (pIC50) (converted)
[8] = 72 h incubation, SRB, mean ± SE of three experiments, read-out: IC50 HepG2
[9] = training set, Table 4, -log IC50 (IC50 in µM)

Row | Compound | IC50 [1, 2] [µM] | IC50 [1, 3] [µM] | IC50 (MCF-7 breast cancer; [4]) [µM] | IC50 (Caco-2 colon cancer; [5]) [µM] | IC50 (Caco-2 colon cancer; [6]) [µM] | melting point [°C] | IC50 [1, 7] [µM] | IC50 (Caco-2 colon cancer; Homo sapiens, Caco-2, external validation test compounds, Table 5, -log IC50 (IC50 in µM), read-out: Caco-2 Experimental activity (pIC50) (converted)) [µM] | IC50 ([1]; Homo sapiens, HepG2, 72 h incubation, SRB, mean ± SE of three experiments, read-out: IC50 HepG2) [µM] | IC50 [1, 8] [µM] | HepG2 Experimental activity (pIC50) [1, 9] | IC50 (MCF-7 breast cancer; 72 h incubation, read-out: IC50 MCF7) [µM] | IC50 (Caco-2 colon cancer; 72 h incubation, SRB, mean ± SE of three experiments, read-out: IC50 Caco-2) [µM] | Caco-2 Experimental activity (pIC50) (Caco-2 colon cancer; [9])
1 | NS(=O)(=O)c1ccc(NS(=O)(=O)c2ccc3oc(=O)ccc3c2)cc1 [Compound 4a, 2-Oxo-N-(4-sulfamoylphenyl)-2H-chromene-6-sulfonamide] | 35.5 ± 2.93 | 35.5 | 50.7 ± 4.61 | 193 ± 15.3 | 193 | 266 to 268 | – | – | – | – | – | – | – | –
2 | O=c1ccc2cc(S(=O)(=O)Nc3ccc(S(=O)(=O)Nc4ccccn4)cc3)ccc2o1 [Compound 4b, 2-Oxo-N-(4-(N-(pyridin-2-yl)sulfamoyl)phenyl)-2H-chromene-6-sulfonamide] | 8.08 ± 0.51 | 8.08 | 22.9 ± 2.04 | 66.9 ± 6.07 | 66.9 | 237 to 239 | – | – | – | – | – | – | – | –
3 | CC(=O)c1ccc(NS(=O)(=O)c2ccc3oc(=O)ccc3c2)cc1 [Compound 6, N-(4-acetylphenyl)-2-oxo-2H-chromene-6-sulfonamide] | 25.6 ± 1.36 | – | > 200 | 81.5 ± 6.89 | – | – | 25.6 | 81.5 | – | – | – | – | – | –
4 | CC(=NNc1ccccc1)c1ccc(NS(=O)(=O)c2ccc3oc(=O)ccc3c2)cc1 [Compound 8a, 2-Oxo-N-(4–(1-(2-phenylhydrazono)ethyl)phenyl)-2H-chromene-6-sulfonamide] | 27 ± 2.01 | 27 | 14.3 ± 1.18 | 8.53 ± 0.72 | 8.53 | 178 to 180 | – | – | – | – | – | – | – | –
5 | CC(=NNc1ccc([N+](=O)[O-])cc1[N+](=O)[O-])c1ccc(NS(=O)(=O)c2ccc3oc(=O)ccc3c2)cc1 [Compound 8b, N-(4–(1-(2–(2,4-dinitrophenyl)hydrazono)ethyl)phenyl)-2-oxo-2H-chromene-6-sulfonamide] | – | 11.8 | 126 ± 10.9 | 89.6 ± 7.26 | 89.6 | 269 to 270 | – | – | 11.8 ± 1.34 | – | – | – | – | –
6 | CC(=NNc1c(Cl)cc(Cl)cc1Cl)c1ccc(NS(=O)(=O)c2ccc3oc(=O)ccc3c2)cc1 [Compound 8c, 2-Oxo-N-(4–(1-(2–(2,4,6-trichlorophenyl)hydrazono)ethyl)phenyl)-2H-chromene-6-sulfonamide] | 29.8 ± 2.21 | 29.8 | > 200 | 76.9 ± 6.59 | 76.9 | 259 to 260 | – | – | – | – | – | – | – | –
7 | CC(=NNS(=O)(=O)c1ccc(C)cc1)c1ccc(NS(=O)(=O)c2ccc3oc(=O)ccc3c2)cc1 [Compound 8d, 2-Oxo-N-(4–(1-(2-tosylhydrazono)ethyl)phenyl)-2H-chromene-6-sulfonamide] | 89.9 ± 7.63 | – | > 200 | 16 ± 1.32 | 16 | 163 to 165 | 89.9 | – | – | – | – | – | – | –
8 | CC(=NNC(N)=S)c1ccc(NS(=O)(=O)c2ccc3oc(=O)ccc3c2)cc1 [Compound 9, 2–(1-(4–(2-Oxo-2H-chromene-6-sulfonamido)phenyl)ethylidene)hydrazine carbothioamide] | 163 ± 10.2 | 163 | > 200 | > 200 | – | 253 to 254 | – | – | – | – | – | – | – | –
9 | CC(=NNc1nc(C)cs1)c1ccc(NS(=O)(=O)c2ccc3oc(=O)ccc3c2)cc1 [Compound 11a, N-(4–(1-(2–(4-methylthiazol-2-yl)hydrazono)ethyl)phenyl)-2-oxo-2H-chromene-6-sulfonamide] | > 200 | – | 13.9 ± 1.19 | 10.1 ± 0.9 | – | 257 to 259 | – | – | – | – | – | – | – | –
10 | CCOC(=O)c1sc(NN=C(C)c2ccc(NS(=O)(=O)c3ccc4oc(=O)ccc4c3)cc2)nc1C [Compound 11b, Ethyl 4-methyl-2–(2-(1–(4-(2-oxo-2H-chromene-6-sulfonamido)phenyl)ethylidene)hydrazinyl)thiazole-5-carboxylate] | 54.3 ± 3.87 | 54.3 | 63.4 ± 5.69 | 145 ± 8.02 | 145 | 180 to 182 | – | – | – | – | – | – | – | –
11 | CC(=NNc1nc(C)c(N=Nc2ccc(Cl)cc2)s1)c1ccc(NS(=O)(=O)c2ccc3oc(=O)ccc3c2)cc1 [Compound 11c, N-(4–(1-(2–(5-((4-chlorophenyl)diazenyl)-4-methylthiazol-2-yl)hydrazono)ethyl)phenyl)-2-oxo-2H-chromene-6-sulfonamide] | 72.5 ± 6.33 | 72.5 | 34.7 ± 2.94 | 108 ± 11.4 | 108 | 250 to 252 | – | – | – | – | – | – | – | –
12 | CC(=NNc1nc(C)c(N=Nc2ccc(C)cc2)s1)c1ccc(NS(=O)(=O)c2ccc3oc(=O)ccc3c2)cc1 [Compound 11d, N-(4–(1-(2–(4-methyl-5-(p-tolyldiazenyl)thiazol-2yl)hydrazono)ethyl)phenyl)-2-oxo-2H-chromene-6-sulfonamide] | > 200 | – | > 200 | 16.1 ± 1.28 | 16.1 | 258 to 259 | – | – | – | – | – | – | – | –
13 | CC(=NNc1nc(-c2cc3ccccc3oc2=O)cs1)c1ccc(NS(=O)(=O)c2ccc3oc(=O)ccc3c2)cc1 [Compound 13b, 2-Oxo-N-(4–(1-(2–(4-(2-oxo-2H-chromen-3-yl)thiazol-2-yl)hydrazono)ethyl)phenyl)-2H-chromene-6-sulfonamide] | 11.8 ± 1.16 | 11.8 | > 200 | 96.6 ± 5.37 | 96.6 | 201 to 202 | – | – | – | – | – | – | – | –
14 | CC(=NNC1=NC(=O)C(CC(=O)O)S1)c1ccc(NS(=O)(=O)c2ccc3oc(=O)ccc3c2)cc1 (stereo not shown) [Compound 15c, 2–(4-Oxo-2–(2-(1–(4-(2-oxo-2H-chromene-6-sulfonamido)phenyl)ethylidene) hydrazinyl)-4,5-dihydrothiazol-5-yl)acetic acid] | 7.57 ± 0.66 | – | 16.3 ± 1.48 | 46.1 ± 3.17 | 46.1 | 193 to 194 | 7.57 | – | – | – | – | – | – | –
15 | COc1cccc2c1C(=O)c1c(O)c3c(c(O)c1C2=O)C[C@@](O)(C(=O)CO)C[C@@H]3O[C@H]1C[C@H](N)[C@H](O)[C@H](C)O1 [Doxorubicin, reference compound] | 6.9 ± 2.05 | – | 3.18 ± 0.32 | 4.1 ± 1.37 | – | – | – | – | – | 5.43 ± 0.24 | – | – | – | –
16 | N-(4–(1-(2–(4-methyl-5-oxo-4,5-dihydrothiazol-2-yl)hydrazono)ethyl)phenyl)-2-oxo-2H-chromene-6-sulfonamide [Compound 15b] | – | – | – | – | – | – | – | – | – | 25.1 ± 2.08 | −1.3992 | 10.6 ± 1.35 | 175 ± 12.3 | −2.2428
